The NIST ThermoML archive (doi:10.1016/j.jct.2018.11.005)

Settings: Liquid; for mass density: Vibrating tube method; for speed of sound: Frequency=5 MHz, Single path-length method

CCC(=O)[O-].CC[NH2+]CCO [N-ethyl-2-hydroxyethylammonium propionate]
Settings	mass density [kg/m3]	speed of sound [m/s]
298.14 K, 15000 kPa	1058.3	–
298.14 K, 30000 kPa	1063.5	–
298.15 K, 10000 kPa	1057	–
298.15 K, 25000 kPa	1061.8	–
298.15 K, 35000 kPa	1064.6	–
298.16 K, 100 kPa	1051.9	–
298.16 K, 20000 kPa	1059.9	–
303.08 K, 35000 kPa	1060.7	–
303.12 K, 30000 kPa	1059.2	–
303.14 K, 20000 kPa	1055.6	–
303.14 K, 25000 kPa	1057.4	–
303.15 K, 100 kPa	–	1566.6
303.15 K, 1000 kPa	–	1570.6
303.15 K, 2000 kPa	–	1574.6
303.15 K, 3000 kPa	–	1578.7
303.15 K, 4000 kPa	–	1582.8
303.15 K, 5000 kPa	–	1586.9
303.15 K, 6000 kPa	–	1589.6
303.15 K, 7000 kPa	–	1592.4
303.15 K, 8000 kPa	–	1595.1
303.15 K, 9000 kPa	–	1599.3
303.15 K, 10000 kPa	1052.1	1603.5
303.15 K, 11000 kPa	–	1607.7
303.15 K, 12000 kPa	–	1611.9
303.15 K, 13000 kPa	–	1616.1
303.15 K, 14000 kPa	–	1620.3
303.15 K, 15000 kPa	1053.4	1623.2
303.15 K, 16000 kPa	–	1627.4
303.15 K, 17000 kPa	–	1631.7
303.15 K, 18000 kPa	–	1634.6
303.15 K, 19000 kPa	–	1637.5
303.15 K, 20000 kPa	–	1640.4
303.16 K, 100 kPa	1046.7	–
313.07 K, 25000 kPa	1047.8	–
313.07 K, 30000 kPa	1049.6	–
313.07 K, 35000 kPa	1051.4	–
313.09 K, 10000 kPa	1041.8	–
313.09 K, 20000 kPa	1045.6	–
313.11 K, 15000 kPa	1043.2	–
313.14 K, 100 kPa	1035.6	–
313.15 K, 100 kPa	–	1535.6
313.15 K, 1000 kPa	–	1539.4
313.15 K, 2000 kPa	–	1543.3
313.15 K, 3000 kPa	–	1547.2
313.15 K, 4000 kPa	–	1552.4
313.15 K, 5000 kPa	–	1555
313.15 K, 6000 kPa	–	1560.3
313.15 K, 7000 kPa	–	1564.2
313.15 K, 8000 kPa	–	1568.2
313.15 K, 9000 kPa	–	1572.2
313.15 K, 10000 kPa	–	1576.2
313.15 K, 11000 kPa	–	1578.9
313.15 K, 12000 kPa	–	1583
313.15 K, 13000 kPa	–	1587.1
313.15 K, 14000 kPa	–	1591.1
313.15 K, 15000 kPa	–	1595.3
313.15 K, 16000 kPa	–	1599.4
313.15 K, 17000 kPa	–	1603.5
313.15 K, 18000 kPa	–	1607.7
313.15 K, 19000 kPa	–	1610.5
313.15 K, 20000 kPa	–	1614.7
323.15 K, 100 kPa	1024.4	1504.9
323.15 K, 1000 kPa	–	1508.6
323.15 K, 2000 kPa	–	1512.4
323.15 K, 3000 kPa	–	1517.3
323.15 K, 4000 kPa	–	1522.4
323.15 K, 5000 kPa	–	1527.4
323.15 K, 6000 kPa	–	1531.2
323.15 K, 7000 kPa	–	1535
323.15 K, 8000 kPa	–	1538.9
323.15 K, 9000 kPa	–	1542.8
323.15 K, 10000 kPa	–	1546.6
323.15 K, 11000 kPa	–	1550.5
323.15 K, 12000 kPa	–	1555.7
323.15 K, 13000 kPa	–	1559.7
323.15 K, 14000 kPa	–	1563.6
323.15 K, 15000 kPa	1032.6	1566.3
323.15 K, 16000 kPa	–	1570.3
323.15 K, 17000 kPa	–	1572.9
323.15 K, 18000 kPa	–	1575.6
323.15 K, 19000 kPa	–	1579.6
323.15 K, 20000 kPa	1035.2	1583.7
323.15 K, 25000 kPa	1037.2	–
323.15 K, 30000 kPa	1039.3	–
323.15 K, 35000 kPa	1041.5	–
323.16 K, 10000 kPa	1030.5	–
333.14 K, 10000 kPa	1018	–
333.15 K, 100 kPa	–	1485.5
333.15 K, 1000 kPa	–	1489.2
333.15 K, 2000 kPa	–	1494.2
333.15 K, 3000 kPa	–	1497.9
333.15 K, 4000 kPa	–	1500.5
333.15 K, 5000 kPa	–	1503
333.15 K, 6000 kPa	–	1508
333.15 K, 7000 kPa	–	1511.8
333.15 K, 8000 kPa	–	1514.4
333.15 K, 9000 kPa	–	1519.4
333.15 K, 10000 kPa	–	1523.2
333.15 K, 11000 kPa	–	1525.8
333.15 K, 12000 kPa	–	1530.9
333.15 K, 13000 kPa	–	1533.5
333.15 K, 14000 kPa	–	1536.1
333.15 K, 15000 kPa	1021	1540
333.15 K, 16000 kPa	–	1542.6
333.15 K, 17000 kPa	–	1546.5
333.15 K, 18000 kPa	–	1550.4
333.15 K, 19000 kPa	–	1553
333.15 K, 20000 kPa	–	1555.6
333.15 K, 30000 kPa	1028.8	–
333.15 K, 35000 kPa	1031.3	–
333.16 K, 100 kPa	1011.9	–
333.16 K, 20000 kPa	1023.7	–
333.16 K, 25000 kPa	1026.2	–
343.14 K, 15000 kPa	1008.7	–
343.14 K, 25000 kPa	1014.3	–
343.15 K, 100 kPa	–	1450.5
343.15 K, 1000 kPa	–	1454.2
343.15 K, 2000 kPa	–	1458
343.15 K, 3000 kPa	–	1461.8
343.15 K, 4000 kPa	–	1466.7
343.15 K, 5000 kPa	–	1470.5
343.15 K, 6000 kPa	–	1474.3
343.15 K, 7000 kPa	–	1478.1
343.15 K, 8000 kPa	–	1481.9
343.15 K, 9000 kPa	–	1485.7
343.15 K, 10000 kPa	–	1489.5
343.15 K, 11000 kPa	–	1493.3
343.15 K, 12000 kPa	–	1497.2
343.15 K, 13000 kPa	–	1501
343.15 K, 14000 kPa	–	1504.8
343.15 K, 15000 kPa	–	1507.4
343.15 K, 16000 kPa	–	1511.2
343.15 K, 17000 kPa	–	1516.3
343.15 K, 18000 kPa	–	1520.1
343.15 K, 19000 kPa	–	1524
343.15 K, 20000 kPa	–	1526.6
343.17 K, 100 kPa	998.8	–
343.17 K, 10000 kPa	1004.6	–
343.17 K, 30000 kPa	1017.4	–
343.19 K, 35000 kPa	1020.1	–
343.21 K, 20000 kPa	1011.2	–
353.15 K, 100 kPa	–	1416
353.15 K, 1000 kPa	–	1419.9
353.15 K, 2000 kPa	–	1423.8
353.15 K, 3000 kPa	–	1428.9
353.15 K, 4000 kPa	–	1434
353.15 K, 5000 kPa	–	1438
353.15 K, 6000 kPa	–	1443.1
353.15 K, 7000 kPa	–	1447
353.15 K, 8000 kPa	–	1451
353.15 K, 9000 kPa	–	1456.1
353.15 K, 10000 kPa	–	1460
353.15 K, 11000 kPa	–	1465.1
353.15 K, 12000 kPa	–	1469
353.15 K, 13000 kPa	–	1471.8
353.15 K, 14000 kPa	–	1476.9
353.15 K, 15000 kPa	–	1480.8
353.15 K, 16000 kPa	–	1484.7
353.15 K, 17000 kPa	–	1488.6
353.15 K, 18000 kPa	–	1492.5
353.15 K, 19000 kPa	–	1496.4
353.15 K, 20000 kPa	–	1500.2
